According to patent publication US20100317528A1, “HERBICIDE CONTAINING BENZOYLPYRAZOLE COMPOUND” (ISHIHARA SANGYO KAISHA, LTD., priority 2006, published 2010):

How the values were obtained:
Type in all cases: in vivo
[1] = system: soybean (Glycine max Merr.); test: Test Example 2: soil application on the day after sowing, soybean; details: 250 g/ha active ingredient, observed 19th to 28th day after application; for inhibition at 250 g/ha: Glycine max, read-out: Growth inhibition rate (%) Soybean
Source text: (§1) Upland field soil was put into a 1/170,000 hectare pot, and seeds of various plants barnyardgrass (Echinochloa crus-galli L.), crabgrass (Digitaria sanquinalis L.), green foxtail (Setaria viridis L.), redroot pigweed (Amaranthus retroflexus L.), prickly sida (Sida spinosa L.), velvetleaf (Abutilon theophrasti MEDIC.), rice (Oryza sativa L.), wheat (Triticum spp.), corn (Zea mays L.) and soybean (Glycine max Merr.)) were sown. On the day after sowing, wettable powders or emulsifiable concentrates of the compounds of the above formula (I) prepared in accordance with a conventional preparation method, were weighed so that the active ingredients became the prescribed amounts, and diluted with water in an amount corresponding to 500 liter per 1 hectare, followed by soil application with a small sprayer.
(§2) On the 19th to 28th day after the application, the state of growth of the respective plants was visually observed, and the herbicidal effect was evaluated by a growth inhibition rate (%) of from 0 (equivalent to the non-treated area) to 100% (complete kill).

[2] = system: crabgrass (Digitaria sanguinalis L.); test: Test Example 1: foliar treatment, upland pot test, crabgrass; details: 31 g/ha active ingredient, observed 17th to 25th day after application; for inhibition at 31 g/ha: Digitaria sanguinalis, read-out: Growth inhibition rate (%) Crabgrass
Source text: (§3) Upland field soil was put into a 1/170,000 hectare pot, and seeds of various plants were sown. When the respective plants reached predetermined leaf stage ((1) barnyardgrass (Echinochloa crus-galli L.): 1.0 to 3.0 leaf stage, (2) crabgrass (Digitaria sanguinalis L.): 1.0 to 3.0 leaf stage, (3) green foxtail (Setaria viridis L.): 1.0 to 3.0 leaf stage, (4) redroot pigweed (Amaranthus retroflexus L.): cotyledon stage to 2.0 leaf stage, (5) prickly sida (Sida spinosa L.): cotyledon stage to 1.0 leaf stage, (6) velvetleaf (Abutilon theophrasti MEDIC.): 0.1 to 1.5 leaf stage, (7) rice (Oryza sativa L.): 1.0 to 3.0 leaf stage, (8) wheat (Triticum spp.): 1.7 to 3.4 leaf stage, (9) corn (Zea mays L.): 2.0 to 3.5 leaf stage, (10) soybean (Glycine max Merr.): primary leaf stage to 0.4 leaf stage), wettable powders or emulsifiable concentrates of the compounds of the above formula (I) prepared in accordance with a conventional preparation method, were weighed so that the active ingredients became the prescribed amounts, and diluted with water in an amount corresponding to 500 liter per 1 hectare (containing 0.1 vol % of “KUSARINOH”, manufactured by NIHON NOHYAKU CO., LTD. as an agricultural spreader). The spray solutions thus prepared were applied for foliar treatment by a small sprayer.
(§4) On the 17th to 25th day after application, the state of growth of the respective plants was visually observed, and the herbicidal effect was evaluated by a growth inhibition rate (%) of 0 (equivalent to the non-treated area) to 100% (complete kill).

[3] = system: prickly sida (Sida spinosa L.); test: Test Example 1: foliar treatment, upland pot test, prickly sida; details: 31 g/ha active ingredient, observed 17th to 25th day after application; for inhibition at 31 g/ha: Sida spinosa, read-out: Growth inhibition rate (%) Prickly sida
Source text: as §3, §4

[4] = system: velvetleaf (Abutilon theophrasti MEDIC.); test: Test Example 2: soil application on the day after sowing, velvetleaf; details: 250 g/ha active ingredient, observed 19th to 28th day after application; for inhibition at 250 g/ha: Abutilon theophrasti, read-out: Growth inhibition rate (%) Velvetleaf
Source text: as §1, §2

[5] = system: green foxtail (Setaria viridis L.); test: Test Example 2: soil application on the day after sowing, green foxtail; details: 250 g/ha active ingredient, observed 19th to 28th day after application; for inhibition at 250 g/ha: Setaria viridis, read-out: Growth inhibition rate (%) Green foxtail
Source text: as §1, §2

[6] = system: velvetleaf (Abutilon theophrasti MEDIC.); test: Test Example 1: foliar treatment, upland pot test, velvetleaf; details: 31 g/ha active ingredient, observed 17th to 25th day after application; for inhibition at 31 g/ha: Abutilon theophrasti, read-out: Growth inhibition rate (%) Velvetleaf
Source text: as §3, §4

[7] = system: crabgrass (Digitaria sanquinalis L.); test: Test Example 2: soil application on the day after sowing, crabgrass; details: 250 g/ha active ingredient, observed 19th to 28th day after application; for inhibition at 250 g/ha: Digitaria, read-out: Growth inhibition rate (%) Crabgrass
Source text: as §1, §2

[8] = system: prickly sida (Sida spinosa L.); test: Test Example 2: soil application on the day after sowing, prickly sida; details: 250 g/ha active ingredient, observed 19th to 28th day after application; for inhibition at 250 g/ha: Sida spinosa, read-out: Growth inhibition rate (%) Prickly sida
Source text: as §1, §2

[9] = system: rice (Oryza sativa L.); test: Test Example 1: foliar treatment, upland pot test, rice; details: 31 g/ha active ingredient, observed 17th to 25th day after application; for inhibition at 31 g/ha: Oryza sativa, read-out: Growth inhibition rate (%) Rice
Source text: as §3, §4

[10] = system: redroot pigweed (Amaranthus retroflexus L.); test: Test Example 1: foliar treatment, upland pot test, redroot pigweed; details: 31 g/ha active ingredient, observed 17th to 25th day after application; for inhibition at 31 g/ha: Amaranthus retroflexus, read-out: Growth inhibition rate (%) Redroot pigweed
Source text: as §3, §4

[11] = system: corn (Zea mays L.); test: Test Example 2: soil application on the day after sowing, corn; details: 250 g/ha active ingredient, observed 19th to 28th day after application; for inhibition at 250 g/ha: Zea mays, read-out: Growth inhibition rate (%) Corn
Source text: as §1, §2

[12] = system: wheat (Triticum spp.); test: Test Example 1: foliar treatment, upland pot test, wheat; details: 31 g/ha active ingredient, observed 17th to 25th day after application; for inhibition at 31 g/ha: Triticum, read-out: Growth inhibition rate (%) Wheat
Source text: as §3, §4

[13] = system: rice (Oryza sativa L.); test: Test Example 2: soil application on the day after sowing, rice; details: 250 g/ha active ingredient, observed 19th to 28th day after application; for inhibition at 250 g/ha: Oryza sativa, read-out: Growth inhibition rate (%) Rice
Source text: as §1, §2

[14] = system: redroot pigweed (Amaranthus retroflexus L.); test: Test Example 2: soil application on the day after sowing, redroot pigweed; details: 250 g/ha active ingredient, observed 19th to 28th day after application; for inhibition at 250 g/ha: Amaranthus retroflexus, read-out: Growth inhibition rate (%) Redroot pigweed
Source text: as §1, §2

[15] = system: soybean (Glycine max Merr.); test: Test Example 1: foliar treatment, upland pot test, soybean; details: 31 g/ha active ingredient, observed 17th to 25th day after application; for inhibition at 31 g/ha: Glycine max, read-out: Growth inhibition rate (%) Soybean
Source text: as §3, §4

[16] = system: green foxtail (Setaria viridis L.); test: Test Example 1: foliar treatment, upland pot test, green foxtail; details: 31 g/ha active ingredient, observed 17th to 25th day after application; for inhibition at 31 g/ha: Setaria viridis, read-out: Growth inhibition rate (%) Green foxtail
Source text: as §3, §4

[17] = system: corn (Zea mays L.); test: Test Example 1: foliar treatment, upland pot test, corn; details: 31 g/ha active ingredient, observed 17th to 25th day after application; for inhibition at 31 g/ha: Zea mays, read-out: Growth inhibition rate (%) Corn
Source text: as §3, §4

[18] = system: wheat (Triticum spp.); test: Test Example 2: soil application on the day after sowing, wheat; details: 250 g/ha active ingredient, observed 19th to 28th day after application; for inhibition at 250 g/ha: Triticum, read-out: Growth inhibition rate (%) Wheat
Source text: as §1, §2

[19] = system: barnyardgrass (Echinochloa crus-galli L.); test: Test Example 2: soil application on the day after sowing, barnyardgrass; details: 250 g/ha active ingredient, observed 19th to 28th day after application; for inhibition at 250 g/ha: Echinochloa crus-galli, read-out: Growth inhibition rate (%) Barnyardgrass
Source text: as §1, §2

[20] = system: barnyardgrass (Echinochloa crus-galli L.); test: Test Example 1: foliar treatment, upland pot test, barnyardgrass; details: 31 g/ha active ingredient, observed 17th to 25th day after application; for inhibition at 31 g/ha: Echinochloa crus-galli, read-out: Growth inhibition rate (%) Barnyardgrass
Source text: as §3, §4

SMILES | inhibition at 250 g/ha [1] [%] | inhibition at 31 g/ha [2] [%] | inhibition at 31 g/ha [3] [%] | inhibition at 250 g/ha [4] [%] | inhibition at 250 g/ha [5] [%] | inhibition at 31 g/ha [6] [%] | inhibition at 250 g/ha [7] [%] | inhibition at 250 g/ha [8] [%] | inhibition at 31 g/ha [9] [%] | inhibition at 31 g/ha [10] [%] | inhibition at 250 g/ha [11] [%] | inhibition at 31 g/ha [12] [%] | inhibition at 250 g/ha [13] [%] | inhibition at 250 g/ha [14] [%] | inhibition at 31 g/ha [15] [%] | inhibition at 31 g/ha [16] [%] | inhibition at 31 g/ha [17] [%] | inhibition at 250 g/ha [18] [%] | inhibition at 250 g/ha [19] [%] | inhibition at 31 g/ha [20] [%] | further results
COC(COc1c(S(C)(=O)=O)ccc(C(=O)c2cnn(C)c2O)c1C)OC [Compound No. 1, 5-hydroxy-1-methylpyrazol-4-yl 3-(2,2-dimethoxyethoxy)-2-methyl-4-(methylsulfonyl)phenyl ketone] | 40 | 90 | 80 | 95 | 100 | 100 | 90 | 30 | 80 | 98 | 0 | 30 | 90 | 100 | 98 | 98 | 10 | 40 | 100 | 98 | –
COc1c(S(C)(=O)=O)ccc(C(=O)c2cnn(C)c2O)c1C [compound 143] | 80 | 70 | 70 | 100 | 100 | 98 | 100 | 90 | 40 | 80 | 20 | 10 | 100 | 100 | 60 | 70 | 0 | 70 | 100 | 10 | –
Cc1c(C(=O)c2cnn(C)c2O)ccc(S(C)(=O)=O)c1OC(F)F [compound 146] | 0 | 30 | 40 | 40 | 95 | 50 | 100 | 90 | 20 | 80 | 0 | 0 | 70 | 100 | 60 | 30 | 0 | 0 | 90 | 80 | –
CCOC(=O)c1c(S(C)(=O)=O)ccc(C(=O)c2cnn(CC)c2O)c1Cl [compound 153] | 0 | 80 | 70 | 100 | 100 | 70 | 100 | 80 | 40 | 90 | 10 | 0 | 70 | 100 | 70 | 60 | 0 | 10 | 100 | 90 | –
CCCOC(=O)c1c(S(C)(=O)=O)ccc(C(=O)c2cnn(CC)c2O)c1Cl [compound 154] | – | – | – | – | – | – | – | – | – | – | – | – | – | – | – | – | – | – | – | – | Growth inhibition rate (%) Soybean [1]: 0%; Growth inhibition rate (%) Crabgrass [2]: 70%; Growth inhibition rate (%) Prickly sida [3]: 40%; Growth inhibition rate (%) Velvetleaf [4]: 40%; Growth inhibition rate (%) Green foxtail [5]: 30%; Growth inhibition rate (%) Velvetleaf [6]: 60%; Growth inhibition rate (%) Crabgrass [7]: 95%; Growth inhibition rate (%) Prickly sida [8]: 60%; Growth inhibition rate (%) Rice [9]: 50%; Growth inhibition rate (%) Redroot pigweed [10]: 70%; Growth inhibition rate (%) Corn [11]: 0%; Growth inhibition rate (%) Wheat [12]: 0%; Growth inhibition rate (%) Rice [13]: 50%; Growth inhibition rate (%) Redroot pigweed [14]: 100%; Growth inhibition rate (%) Soybean [15]: 30%; Growth inhibition rate (%) Green foxtail [16]: 60%; Growth inhibition rate (%) Corn [17]: 0%; Growth inhibition rate (%) Wheat [18]: 0%; Growth inhibition rate (%) Barnyardgrass [19]: 100%; Growth inhibition rate (%) Barnyardgrass [20]: 40%
Cc1c(C(=O)c2cnn(C)c2O)ccc(S(C)(=O)=O)c1C#N [compound 171] | 10 | 60 | 70 | 40 | 40 | 75 | 80 | 50 | 40 | 80 | 0 | 0 | 10 | 100 | 70 | 70 | 0 | 0 | 70 | 80 | –
